From PubChem BioAssay (NCI)
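Where inhibition never reached the appropriate level, the endpoint shown equals the highest concentration tested. Otherwise, values were interpolated linearly from a five-concentration, 48-hour dose response in 96-well plates. GI50 = concentration required for 50% inhibition of growth. Definition used: TGI = concentration required for complete inhibition of growth.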

Legend:
Assay in all cases: inhibition of tumour cell growth, NCI panel, 48 h
HCT-15 colon = test system: HCT-15 colon
HOP-62 NSCLC = test system: HOP-62 NSCLC
HS 578T breast = test system: HS 578T breast
NCI-H23 lung = test system: NCI-H23 lung
NCI-H460 lung = test system: NCI-H460 lung
NCI-H522 lung = test system: NCI-H522 lung
OVCAR-3 ovarian = test system: OVCAR-3 ovarian
OVCAR-4 ovarian = test system: OVCAR-4 ovarian
SK-OV-3 ovarian = test system: SK-OV-3 ovarian
TK-10 renal = test system: TK-10 renal

| SMILES | TGI (HCT-15 colon) [µM] | TGI (HOP-62 NSCLC) [µM] | TGI (HS 578T breast) [µM] | TGI (NCI-H23 lung) [µM] | TGI (NCI-H460 lung) [µM] | TGI (NCI-H522 lung) [µM] | TGI (OVCAR-3 ovarian) [µM] | TGI (OVCAR-4 ovarian) [µM] | TGI (SK-OV-3 ovarian) [µM] | TGI (TK-10 renal) [µM] | GI50 (HCT-15 colon) [µM] | GI50 (HOP-62 NSCLC) [µM] | GI50 (HS 578T breast) [µM] | GI50 (NCI-H23 lung) [µM] | GI50 (NCI-H460 lung) [µM] | GI50 (NCI-H522 lung) [µM] | GI50 (OVCAR-3 ovarian) [µM] | GI50 (OVCAR-4 ovarian) [µM] | GI50 (SK-OV-3 ovarian) [µM] | GI50 (TK-10 renal) [µM] |
| --- | --- | --- | --- | --- | --- | --- | --- | --- | --- | --- | --- | --- | --- | --- | --- | --- | --- | --- | --- | --- |
| Nc1cc(C(=O)O)[nH]c(=O)n1 | > 100 | > 100 | > 100 | > 100 | > 100 | > 100 | > 100 | > 100 | > 100 | > 100 | – | – | – | – | – | – | – | – | – | – |
| Cc1cc2cc3cc(C)c(N(C)C)cc3[n+](C)c2cc1N(C)C | 72.8 | 24.3 | 14.9 | 31.2 | 11 | 36.1 | 14 | 34.2 | > 100 | 58.4 | 4.52 | 6.03 | 2.35 | 2.77 | 2.65 | 5.35 | 3.13 | 2.83 | 5.05 | 5.19 |
| CC/C(=C(/c1ccc(OCCN(C)C)cc1)c1ccc(OC(=O)CCC(=O)c2c(C)[nH]c(/C=C3\N=C(c4ccc[nH]4)C=C3OC)c2C)cc1)c1ccccc1 | 4.48 | 4.94 | 4.72 | 18.7 | 14.1 | 5.38 | 10.3 | 14.8 | 29.6 | 15.7 | 0.934 | 1.49 | 1.15 | 4.02 | 3.48 | 1.88 | 2.08 | 1.49 | 6.99 | 4.87 |
| Oc1ccc(CN2CCC(N3CCOCC3)CC2)c2cccnc12 | > 100 | > 100 | > 100 | > 100 | > 100 | 61.2 | > 100 | > 100 | > 100 | > 100 | 36.5 | 42.7 | 62.1 | 35 | 46.9 | 26.5 | 31.5 | 22.9 | > 100 | 62.4 |
| COc1cc2c3c(n(CCCN(CCN)CCCn4c5c(c6cc(OC)c(OC)cc6c4=O)C(=O)c4cc6c(cc4-5)OCO6)c(=O)c2cc1OC)-c1cc2c(cc1C3=O)OCO2 | > 100 | 1.64 | > 100 | 5.24 | 13.6 | 3.88 | 20.7 | > 83.8 | > 91.6 | > 24.8 | 8.43 | 0.33 | 12.6 | 0.984 | 0.469 | 0.343 | 4.34 | 13.3 | 1.41 | 3.11 |
| CC(C)[C@H]1CC[C@H]2[C@@H](CC[C@H]3[C@](C)(CN)CCC[C@]23C)C1 | 3.98 | 3.48 | 6.67 | 3.39 | 3.31 | 3.82 | 3.84 | 20.3 | 16.3 | 7.9 | 1.81 | 1.89 | 2.45 | 1.79 | 1.68 | 1.91 | 1.96 | 4.36 | 4.25 | 2.19 |
| N#Cc1ncc(-c2ccc(C(F)(F)F)cc2)c(NCc2cc(C(F)(F)F)cc(C(F)(F)F)c2)n1 | > 100 | 39.2 | 59.8 | 23.8 | 10.2 | 9.86 | 22.7 | > 100 | 47.3 | 56 | 3.52 | 4.73 | 3.08 | 3.22 | 3.02 | 2.92 | 3.8 | 3.33 | 5.23 | 5.84 |
